From US20190105367A1, “ANTIMICROBIAL 4-OXOQUINOLIZINES” (Emergent Product Development Gaithersburg Inc., priority 2011, published 2019)

Tests used:
A. baumannii ATCC 19606 [1] = assay: MIC without and with sub-inhibitory polymyxin B (Example 4); type: cell-based, Acinetobacter baumannii; conditions: A. baumannii ATCC 19606
A. baumannii ATCC 19606 [2] = assay: Preliminary MBC without and with sub-inhibitory polymyxin B (Example 4); type: cell-based, Acinetobacter baumannii; conditions: for MBC: 2nd experiment
A. baumannii J2 [3] = assay: MIC without and with sub-inhibitory polymyxin B (Example 4); type: cell-based, Acinetobacter baumannii; conditions: A. baumannii J2
A. baumannii J2 [4] = assay: Preliminary MBC without and with sub-inhibitory polymyxin B (Example 4); type: cell-based, Acinetobacter baumannii; conditions: A. baumannii J2, preliminary MBC; for MBC: 2nd experiment
[5] = system: Acinetobacter sp. (H064200250); assay: MIC without and with sub-inhibitory polymyxin B (Example 4); type: cell-based
[6] = system: Acinetobacter sp. (H064200250); assay: Preliminary MBC without and with sub-inhibitory polymyxin B (Example 4); type: cell-based; conditions: preliminary MBC; for MBC: Acinetobacter spp. H064200250 (OXA51), 2nd experiment
Summary of the method: (§1)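 After plating, cultures are held at 37° C for 18-20 hours; the endpoint is then scored by comparing colony growth against the positive control, with MBC defined as the lowest concentration showing roughly 90% reduction.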

A. baumannii A329 = assay: as above; type: cell-based, Acinetobacter baumannii; conditions: for MBC: 2nd experiment
A. baumannii A387 [7] = assay: MIC without and with sub-inhibitory polymyxin B (Example 4); type: cell-based, Acinetobacter baumannii; conditions: A. baumannii A387
A. baumannii A387 [8] = assay: Preliminary MBC without and with sub-inhibitory polymyxin B (Example 4); type: cell-based, Acinetobacter baumannii; conditions: for MBC: 2nd experiment
A. baumannii A390 = assay: MIC without and with sub-inhibitory polymyxin B (Example 4); type: cell-based, Acinetobacter baumannii; conditions: A. baumannii A390
A. baumannii A14 = assay: Preliminary MBC without and with sub-inhibitory polymyxin B (Example 4); type: cell-based, Acinetobacter baumannii; conditions: A. baumannii A14, +0.06 μg/ml PB, 2nd experiment
Summary of the method: as §1

[9] = +0.06 μg/ml polymyxin B, 1st experiment
[10] = ratio, PB 0.06 μg/ml, 1st experiment
[11] = without polymyxin B, 1st experiment
[12] = +[…] polymyxin B, 1st experiment
[13] = Acinetobacter spp. H064200250 (OXA51), +[…] PB, 2nd experiment
[14] = Acinetobacter spp. H064200250, +[…] polymyxin B, 1st experiment
[15] = Acinetobacter spp. H064200250, without polymyxin B, 1st experiment

Substance: Polymyxin B [reference compound]
- MIC (A. baumannii ATCC 19606 [1]; +0.06 μg/ml PB, 2nd experiment): 0.25 µg/mL
- MIC without PB/MIC + PB (A. baumannii ATCC 19606 [1]; +0.06 μg/ml PB, 2nd experiment): 2
- MIC +0.06 μg/ml PB (A. baumannii ATCC 19606 [1]; [9]): 0.5 µg/mL
- MIC without PB/MIC + PB (A. baumannii ATCC 19606 [1]; [10]): 1
- MIC (A. baumannii ATCC 19606 [1]; without PB, 2nd experiment): 0.5 µg/mL
- MIC without PB (A. baumannii ATCC 19606 [1]; [11]): 0.5 µg/mL
- MBC (A. baumannii ATCC 19606 [2]; A. baumannii ATCC 19606, +0.06 μg/ml PB): 0.25 µg/mL
- MBC +0.06 μg/ml PB (A. baumannii ATCC 19606 [2]; A. baumannii ATCC 19606, +0.06 μg/ml polymyxin B, 1st experiment): 0.5 µg/mL
- MBC (A. baumannii ATCC 19606 [2]; A. baumannii ATCC 19606, without PB): 0.5 µg/mL
- MBC without PB (A. baumannii ATCC 19606 [2]; A. baumannii ATCC 19606, without polymyxin B, 1st experiment): 0.5 µg/mL
- MIC (A. baumannii J2 [3]; +[…] PB, 2nd experiment): ≤0.125 µg/mL
- MIC without PB/MIC + PB (A. baumannii J2 [3]; +[…] PB, 2nd experiment): ≥4
- MIC +[…] PB (A. baumannii J2 [3]; [12]): 0.5 µg/mL
- MIC without PB/MIC + PB (A. baumannii J2 [3]; ratio, PB […], 1st experiment): 1
- MIC (A. baumannii J2 [3]; without PB, 2nd experiment): 0.5 µg/mL
- MIC without PB (A. baumannii J2 [3]; [11]): 0.5 µg/mL
- MBC (A. baumannii J2 [4]; +[…] PB): ≤0.125 µg/mL
- MBC +[…] PB (A. baumannii J2 [4]; [12]): 0.5 µg/mL
- MBC (A. baumannii J2 [4]; without PB): 0.5 µg/mL
- MBC without PB (A. baumannii J2 [4]; [11]): 0.5 µg/mL
- MIC [5, 13]: 0.25 µg/mL
- MIC without PB/MIC + PB [5, 13]: 1
- MIC ([5]; Acinetobacter spp. H064200250 (OXA51), without PB, 2nd experiment): 0.25 µg/mL
- MIC +[…] PB [5, 14]: 0.25 µg/mL
- MIC without PB/MIC + PB ([5]; Acinetobacter spp. H064200250, ratio, PB […], 1st experiment): 2
- MIC without PB [5, 15]: 0.5 µg/mL
- MBC ([6]; +[…] PB): 0.25 µg/mL
- MBC ([6]; without PB): 0.25 µg/mL
- MBC +[…] PB [6, 14]: 0.5 µg/mL
- MBC without PB [6, 15]: 0.5 µg/mL
- MBC (A. baumannii A329; A. baumannii A329, +0.06 μg/ml PB): 0.25 µg/mL
- MBC (A. baumannii A329; A. baumannii A329, without PB): 0.25 µg/mL
- MBC without PB (A. baumannii A329; A. baumannii A329, without polymyxin B, 1st experiment): 0.5 µg/mL
- MIC (A. baumannii A387 [7]; +0.06 μg/ml PB, 2nd experiment): ≤ 0.125 µg/mL
- MIC without PB/MIC + PB (A. baumannii A387 [7]; +0.06 μg/ml PB, 2nd experiment): ≥2
- MIC read with alamar blue (A. baumannii A387 [7]; +0.06 μg/ml PB, value in parentheses, 2nd experiment): 0.25 µg/mL
- MIC +0.06 μg/ml PB (A. baumannii A387 [7]; [9]): 0.25 µg/mL
- MIC without PB/MIC + PB (A. baumannii A387 [7]; [10]): 1
- MIC (A. baumannii A387 [7]; without PB, 2nd experiment): 0.25 µg/mL
- MIC without PB (A. baumannii A387 [7]; [11]): 0.25 µg/mL
- MBC (A. baumannii A387 [8]; A. baumannii A387, +0.06 μg/ml PB): 0.25 µg/mL
- MBC +0.06 μg/ml PB (A. baumannii A387 [8]; A. baumannii A387, +0.06 μg/ml polymyxin B, 1st experiment): 0.25 µg/mL
- MBC (A. baumannii A387 [8]; A. baumannii A387, without PB): 0.25 µg/mL
- MBC without PB (A. baumannii A387 [8]; A. baumannii A387, without polymyxin B, 1st experiment): 0.25 µg/mL
- MIC (A. baumannii A390; +0.06 μg/ml PB, 2nd experiment): ≤0.125 µg/mL
- MIC without PB/MIC + PB (A. baumannii A390; +0.06 μg/ml PB, 2nd experiment): ≥2
- MIC (A. baumannii A390; without PB, 2nd experiment): 0.25 µg/mL
- MIC without PB (A. baumannii A390; [11]): 0.25 µg/mL
- MBC (A. baumannii A14): 0.25 µg/mL
